Tests used:
[1] = tested on: Miapaca-2 cells; experiment: MiaPaca-2 Cell Proliferation Assay (1); assay type: cell-based; details: Homo sapiens, MIA PaCa-2, single agent, read-out: MiaPaca2 (1) IC50
Method in brief: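 Resazurin was added after compound exposure and incubated 5-6 h, then fluorescence read at 540 nm excitation and 600 nm emission to give IC50.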

[2] = target: C-Raf kinase (SEQ. ID NO: 3) (Homo sapiens (Human), UniProt P04049, Y340D/Y341D); experiment: Biochemical Assay for C-Raf (1); details: Table J, assay version (1); read-out: CRAF (1) IC50
C-Raf kinase (SEQ. ID NO: 3), sequence (P04049 307-648 Y340D/Y341D): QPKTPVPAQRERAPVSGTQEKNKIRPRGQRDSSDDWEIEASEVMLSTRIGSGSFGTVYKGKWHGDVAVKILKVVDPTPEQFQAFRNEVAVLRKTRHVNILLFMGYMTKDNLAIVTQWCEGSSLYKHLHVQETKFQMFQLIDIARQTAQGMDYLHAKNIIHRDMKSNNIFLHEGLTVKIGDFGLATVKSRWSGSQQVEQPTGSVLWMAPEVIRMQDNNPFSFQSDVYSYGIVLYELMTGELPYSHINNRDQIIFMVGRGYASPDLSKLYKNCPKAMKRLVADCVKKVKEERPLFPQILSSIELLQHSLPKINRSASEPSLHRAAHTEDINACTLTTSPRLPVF
Method in brief: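 IC50 values come from a four-parameter fit of percent inhibition, using the reaction rate over 4–5 h of a 6 h continuous 340 nm read at 30 °C. The enzyme mix was C-Raf 0.43 nM, MEK substrate 30.1 nM and ATP 1 mM, in a PK/LDH NADH-coupled format in Tris pH 7.5 with 1% DMSO.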

[3] = target: A-Raf kinase (SEQ. ID No: 1) (Homo sapiens (Human), UniProt P10398, Y301D/Y302D); experiment: Biochemical Assay for A-Raf (1); details: Table J, assay version (1); read-out: ARAF (1) IC50
A-Raf kinase (SEQ. ID No: 1), sequence (P10398 other isoform, or with tags, fused parts or gaps Y301D (already in the parent)/Y302D (already in the parent)): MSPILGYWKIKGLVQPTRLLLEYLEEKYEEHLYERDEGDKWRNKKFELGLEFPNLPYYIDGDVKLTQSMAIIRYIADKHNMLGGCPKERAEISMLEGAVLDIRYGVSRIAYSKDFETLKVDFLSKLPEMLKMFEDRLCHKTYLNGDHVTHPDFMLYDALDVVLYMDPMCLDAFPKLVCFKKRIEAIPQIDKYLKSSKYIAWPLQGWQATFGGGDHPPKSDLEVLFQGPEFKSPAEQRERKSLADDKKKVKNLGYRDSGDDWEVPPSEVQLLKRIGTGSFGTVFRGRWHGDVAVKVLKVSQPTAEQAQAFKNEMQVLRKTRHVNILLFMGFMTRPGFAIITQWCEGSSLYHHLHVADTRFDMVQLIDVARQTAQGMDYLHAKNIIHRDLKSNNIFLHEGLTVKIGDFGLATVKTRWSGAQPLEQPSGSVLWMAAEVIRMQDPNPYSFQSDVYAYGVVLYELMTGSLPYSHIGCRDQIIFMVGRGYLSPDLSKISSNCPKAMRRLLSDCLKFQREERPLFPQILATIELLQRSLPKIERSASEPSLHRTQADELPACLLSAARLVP
Method in brief: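 IC50 values were derived by four-parameter sigmoidal fitting of percent inhibition, calculated from reaction rates over the 4–5 h window. Absorbance at 340 nm was tracked for 6 h at 30 °C via coupled PK/LDH NADH depletion. Conditions: 1 mM ATP, 30.1 nM MEK substrate, 5.55 nM A-Raf (Y301D/Y302D), Tris pH 7.5, 1% DMSO.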

[4] = target: B-Raf (V600E) (SEQ. ID NO: 4) kinase (Homo sapiens (Human), UniProt P15056, V600E); experiment: Biochemical Assay for B-Raf (V600E) (1); details: Table J, BRAF V600E, assay version (1); read-out: BRAF VE (1) IC50
B-Raf (V600E) (SEQ. ID NO: 4) kinase, sequence (P15056 416-766 V600E): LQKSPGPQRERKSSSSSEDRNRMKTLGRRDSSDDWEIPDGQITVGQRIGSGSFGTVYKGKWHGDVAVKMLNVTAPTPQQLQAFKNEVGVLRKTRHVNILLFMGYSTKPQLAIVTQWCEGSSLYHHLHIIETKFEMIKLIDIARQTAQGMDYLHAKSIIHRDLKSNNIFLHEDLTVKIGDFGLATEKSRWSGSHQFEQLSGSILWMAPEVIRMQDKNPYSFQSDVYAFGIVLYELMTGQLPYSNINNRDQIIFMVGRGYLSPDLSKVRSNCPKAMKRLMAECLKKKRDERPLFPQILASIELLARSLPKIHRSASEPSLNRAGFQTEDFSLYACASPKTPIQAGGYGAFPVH
Method in brief: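 Serially diluted compounds tested against 0.03 nM enzyme with 30.1 nM MEK substrate and 1 mM ATP (Tris pH 7.5, 15 mM MgCl2), ATP use coupled to NADH loss via PK/LDH. A340 monitored continuously 6 h, 30 °C; IC50 fitted (four-parameter) from the 3–4 h rate versus no-compound and known-inhibitor controls.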

Row | IC50 [1] | IC50 [2] | IC50 [3] | IC50 [4] | SMILES
1 | 1 to 10 µM | ≤ 0.1 µM | 1 to 10 µM | ≤ 0.1 µM | CC(=O)Nc1cc(-c2cc(-c3cc(NC(=O)c4ccnc(C)c4)ccc3C)ncn2)ccn1 [Example 59]
2 | 1 to 10 µM | ≤ 0.1 µM | 1 to 10 µM | ≤ 0.1 µM | CNC(=O)c1cc(-c2cc(-c3cc(NC(=O)c4ccnc(C)c4)ccc3C)ncn2)ccn1 [Example 60]
3 | 1 to 10 µM | ≤ 0.1 µM | 1 to 10 µM | ≤ 0.1 µM | COCC(=O)Nc1cc(-c2cc(-c3cc(NC(=O)c4ccnc(C(C)(C)C#N)c4)ccc3C)ccn2)ccn1 [Example 61]
4 | 1 to 10 µM | ≤ 0.1 µM | 0.1 to 0.5 µM | ≤ 0.1 µM | Cc1ccc(NC(=O)c2ccnc(C(F)(F)F)c2)cc1-c1cccc(-c2ccnc(NC(=O)CC#N)c2)c1 [Example 62]
5 | 1 to 10 µM | ≤ 0.1 µM | 0.5 to 1 µM | ≤ 0.1 µM | Cc1ccc(NC(=O)c2ccnc(C(C)(C)C#N)c2)cc1-c1ccnc(-c2ccnc(NC(=O)CC#N)c2)c1 [Example 63]
6 | 1 to 10 µM | ≤ 0.1 µM | 1 to 10 µM | ≤ 0.1 µM | CC(=O)Nc1cc(-c2cccc(-c3cc(NC(=O)c4ccnc(C(F)(F)F)c4)cnc3C)c2)ccn1 [Example 64]
7 | 1 to 10 µM | ≤ 0.1 µM | 1 to 10 µM | ≤ 0.1 µM | CC(=O)Nc1cc(-c2cc(-c3cc(NC(=O)c4ccnc(C(F)(F)F)c4)ccc3F)cc(C)n2)ccn1 [Example 65]
8 | 1 to 10 µM | ≤ 0.1 µM | 1 to 10 µM | ≤ 0.1 µM | CCOc1ncc(-c2cc(NC(=O)c3ccnc(C(F)(F)F)c3)ccc2C)cc1-c1ccnc(NC(C)=O)c1 [Example 68]
9 | 1 to 10 µM | 0.1 to 0.5 µM | 1 to 10 µM | ≤ 0.1 µM | CCOc1ncc(-c2cc(NC(=O)c3ccnc(C(F)(F)F)c3)ccc2C)cc1-c1ccnc(C(=O)NC)c1 [Example 69]
10 | 1 to 10 µM | ≤ 0.1 µM | 0.5 to 1 µM | ≤ 0.1 µM | Cc1ncc(NC(=O)c2ccnc(C(F)(F)F)c2)cc1-c1cccc(-c2ccnc(NC(=O)C3CC3)c2)c1 [Example 70]
11 | 1 to 10 µM | 0.1 to 0.5 µM | 1 to 10 µM | ≤ 0.1 µM | CCOc1ncc(-c2cc(NC(=O)c3ccnc(C(F)(F)F)c3)ccc2C)cc1-c1ccnc(NC(=O)C2CC2)c1 [Example 71]
12 | 1 to 10 µM | ≤ 0.1 µM | 1 to 10 µM | ≤ 0.1 µM | Cc1cc(-c2cc(NC(=O)c3ccnc(C(F)(F)F)c3)ccc2F)cc(-c2ccnc(NC(=O)C3CC3)c2)n1 [Example 72]
13 | 1 to 10 µM | ≤ 0.1 µM | 1 to 10 µM | ≤ 0.1 µM | CNC(=O)c1cc(-c2cccc(-c3cc(NC(=O)c4ccnc(C(F)(F)F)c4)cnc3C)c2)ccn1 [Example 73]
14 | 1 to 10 µM | 0.1 to 0.5 µM | 1 to 10 µM | ≤ 0.1 µM | CNC(=O)c1cc(-c2cc(-c3cc(C(=O)Nc4ccnc(C(C)(C)C#N)c4)ccc3C)ccn2)ccn1 [Example 74]
15 | 1 to 10 µM | ≤ 0.1 µM | 1 to 10 µM | ≤ 0.1 µM | CC(=O)Nc1cc(-c2cc(-c3cc(NC(=O)c4ccnc(C(C)(C)C#N)c4)c(F)cc3C)ccn2)ccn1 [Example 75]
16 | 1 to 10 µM | ≤ 0.1 µM | 1 to 10 µM | ≤ 0.1 µM | Cc1cc(F)c(NC(=O)c2ccnc(C(C)(C)C#N)c2)cc1-c1ccnc(-c2ccnc(NC(=O)C3CC3)c2)c1 [Example 76]
17 | 1 to 10 µM | ≤ 0.1 µM | 1 to 10 µM | ≤ 0.1 µM | Cc1ccc(NC(=O)c2ccnc(C(C)(C)C#N)c2)cc1-c1cccc(-c2cc(NC(=O)C3CC3)ncn2)c1 [Example 77]
18 | 1 to 10 µM | ≤ 0.1 µM | 1 to 10 µM | ≤ 0.1 µM | CNC(=O)c1cc(-c2nccc(-c3cc(NC(=O)c4ccnc(C(C)(C)C#N)c4)ccc3C)n2)ccn1 [Example 78]
